How the values were obtained:
[1] = The drug is tested on WLS-038 corresponding to human gut metagenome with ENA study accession number: PRJEB37062 and ENA sample accession number: ERS12561745 for biotransformation under anaerobic condition. The drug concentrations were measured over 9 timepoints collected between 0 and 24 hours of incubation by liquid-chromatography-coupled mass spectrometry (LC–MS); conditions: 2 µM
[2] = The drug is tested on WLS-310 corresponding to human gut metagenome with ENA study accession number: PRJEB37062 and ENA sample accession number: ERS12561785 for biotransformation under anaerobic condition. The drug concentrations were measured over 9 timepoints collected between 0 and 24 hours of incubation by liquid-chromatography-coupled mass spectrometry (LC–MS); conditions: 2 µM
[3] = human gut metagenome, 24 h, 2 µM
[4] = The drug is tested on WLS-039 corresponding to human gut metagenome with ENA study accession number: PRJEB37062 and ENA sample accession number: ERS12561746 for biotransformation under anaerobic condition. The drug concentrations were measured over 9 timepoints collected between 0 and 24 hours of incubation by liquid-chromatography-coupled mass spectrometry (LC–MS); conditions: 2 µM
[5] = human gut metagenome, 24 h, 2 µM; remark: listed apart in the source
[6] = human gut metagenome, 24 h, 2 µM; remark: listed apart in the source
[7] = human gut metagenome, 24 h, 2 µM; remark: listed apart in the source
[8] = human gut metagenome, 24 h, 2 µM; remark: listed apart in the source
[9] = human gut metagenome, 24 h, 2 µM; remark: listed apart in the source
[10] = The drug is tested on WLS-350 corresponding to human gut metagenome with ENA study accession number: PRJEB37062 and ENA sample accession number: ERS12561789 for biotransformation under anaerobic condition. The drug concentrations were measured over 9 timepoints collected between 0 and 24 hours of incubation by liquid-chromatography-coupled mass spectrometry (LC–MS); conditions: 2 µM
[11] = The drug is tested on WLS-370 corresponding to human gut metagenome with ENA study accession number: PRJEB37062 and ENA sample accession number: ERS12561793 for biotransformation under anaerobic condition. The drug concentrations were measured over 9 timepoints collected between 0 and 24 hours of incubation by liquid-chromatography-coupled mass spectrometry (LC–MS); conditions: 2 µM
[12] = The drug is tested on Z-022 corresponding to mouse gut metagenome with ENA study accession number: PRJEB37062 and ENA sample accession number: ERS12561821 for biotransformation under anaerobic condition. The drug concentrations were measured over 9 timepoints collected between 0 and 24 hours of incubation by liquid-chromatography-coupled mass spectrometry (LC–MS); conditions: 2 µM
[13] = human gut metagenome, 24 h, 2 µM; remark: listed apart in the source
[14] = The drug is tested on WLS-010 corresponding to human gut metagenome with ENA study accession number: PRJEB37062 and ENA sample accession number: ERS12561743 for biotransformation under anaerobic condition. The drug concentrations were measured over 9 timepoints collected between 0 and 24 hours of incubation by liquid-chromatography-coupled mass spectrometry (LC–MS); conditions: 2 µM
[15] = human gut metagenome, 24 h, 2 µM; remark: listed apart in the source
[16] = human gut metagenome, 24 h, 2 µM; remark: listed apart in the source
[17] = human gut metagenome, 24 h, 2 µM; remark: listed apart in the source
[18] = The drug is tested on Z-005 corresponding to metagenome with ENA study accession number: PRJEB37062 and ENA sample accession number: ERS12561805 for biotransformation under anaerobic condition. The drug concentrations were measured over 9 timepoints collected between 0 and 24 hours of incubation by liquid-chromatography-coupled mass spectrometry (LC–MS); conditions: 2 µM
[19] = The drug is tested on WLS-069 corresponding to human gut metagenome with ENA study accession number: PRJEB37062 and ENA sample accession number: ERS12561748 for biotransformation under anaerobic condition. The drug concentrations were measured over 9 timepoints collected between 0 and 24 hours of incubation by liquid-chromatography-coupled mass spectrometry (LC–MS); conditions: 2 µM
[20] = human gut metagenome, 24 h, 2 µM; remark: listed apart in the source
Note: call rule not given here.

SMILES | Bacterial Biotransformation [1] | Bacterial Biotransformation [2] | Bacterial Biotransformation [3] | Bacterial Biotransformation [4] | Bacterial Biotransformation [5] | Bacterial Biotransformation [6] | Bacterial Biotransformation [7] | Bacterial Biotransformation [8] | Bacterial Biotransformation [9] | Bacterial Biotransformation [10] | Bacterial Biotransformation [11] | Bacterial Biotransformation [12] | Bacterial Biotransformation [13] | Bacterial Biotransformation [14] | Bacterial Biotransformation [15] | Bacterial Biotransformation [16] | Bacterial Biotransformation [17] | Bacterial Biotransformation [18] | Bacterial Biotransformation [19] | Bacterial Biotransformation [20]
COc1c2occc2cc2ccc(=O)oc12 [METHOXSALEN] | Compound metabolized | Compound metabolized |  | Compound metabolized | Compound metabolized | Compound metabolized | Compound metabolized | Compound metabolized |  | Compound metabolized | Compound metabolized | Compound NOT metabolized | Compound metabolized | Compound metabolized | Compound metabolized | Compound metabolized | Compound metabolized | Compound metabolized | Compound metabolized | Compound metabolized
Cc1nc2n(c(=O)c1CCN1CCC(c3noc4cc(F)ccc34)CC1)CCCC2 [RISPERIDONE] | Compound metabolized | Compound metabolized | Compound metabolized | Compound metabolized | Compound metabolized | Compound metabolized | Compound metabolized | Compound metabolized | Compound NOT metabolized |  | Compound metabolized | Compound metabolized | Compound metabolized | Compound metabolized | Compound metabolized | Compound metabolized | Compound metabolized | Compound metabolized | Compound metabolized | Compound metabolized
COc1ccc2[nH]c([S+]([O-])Cc3ncc(C)c(OC)c3C)nc2n1 (stereo not given) [TENATOPRAZOLE] | Compound metabolized | Compound metabolized |  | Compound metabolized | Compound NOT metabolized | Compound metabolized | Compound NOT metabolized | Compound NOT metabolized | Compound NOT metabolized | Compound NOT metabolized | Compound metabolized | Compound NOT metabolized | Compound metabolized | Compound metabolized | Compound metabolized | Compound metabolized | Compound metabolized | Compound metabolized | Compound metabolized | Compound NOT metabolized
Cc1cn([C@H]2C[C@H](N=[N+]=[N-])[C@@H](CO)O2)c(=O)[nH]c1=O [ZIDOVUDINE] | Compound NOT metabolized | Compound NOT metabolized | Compound NOT metabolized |  | Compound NOT metabolized | Compound NOT metabolized | Compound NOT metabolized | Compound NOT metabolized | Compound NOT metabolized | Compound NOT metabolized | Compound NOT metabolized | Compound metabolized | Compound NOT metabolized | Compound metabolized | Compound NOT metabolized | Compound NOT metabolized | Compound NOT metabolized | Compound NOT metabolized | Compound NOT metabolized | Compound NOT metabolized

Continued, values first:

Bacterial Biotransformation [1] | Bacterial Biotransformation [2] | Bacterial Biotransformation [3] | Bacterial Biotransformation [4] | Bacterial Biotransformation [5] | Bacterial Biotransformation [6] | Bacterial Biotransformation [7] | Bacterial Biotransformation [8] | Bacterial Biotransformation [9] | Bacterial Biotransformation [10] | Bacterial Biotransformation [11] | Bacterial Biotransformation [12] | Bacterial Biotransformation [13] | Bacterial Biotransformation [14] | Bacterial Biotransformation [15] | Bacterial Biotransformation [16] | Bacterial Biotransformation [17] | Bacterial Biotransformation [18] | Bacterial Biotransformation [19] | Bacterial Biotransformation [20] | SMILES
Compound metabolized | Compound metabolized | Compound metabolized | Compound metabolized | Compound metabolized | Compound metabolized | Compound metabolized | Compound metabolized | Compound metabolized | Compound metabolized | Compound metabolized | Compound metabolized | Compound metabolized | Compound metabolized | Compound metabolized | Compound metabolized | Compound metabolized | Compound metabolized | Compound metabolized | Compound metabolized | CCOC(=O)[C@H](CCc1ccccc1)N[C@@H](C)C(=O)N1[C@H](C(=O)O)C[C@@H]2CCC[C@@H]21
Compound NOT metabolized | Compound metabolized | Compound metabolized | Compound NOT metabolized | Compound NOT metabolized | Compound metabolized | Compound metabolized | Compound metabolized | Compound metabolized | Compound metabolized | Compound metabolized | Compound metabolized | Compound metabolized | Compound metabolized | Compound metabolized | Compound NOT metabolized | Compound metabolized | Compound metabolized | Compound metabolized | Compound metabolized | CCN(CC)CCNC(C(=O)OCCC(C)C)c1ccccc1.Cl.Cl (stereo not given)

Reference: ChEMBL document CHEMBL5724914, “Linking interpersonal differences in gut microbiota composition and drug biotransformation activity” (2024)
